“Also recorded” adds a separate entry of the source. Structures can show the parent of a compound that is named as a salt.
Tests used:
[1] = Calcein AM cytotoxicity assay, BJ; format: cell-based; settings: human, BJ foreskin fibroblasts (normal cell line), IC50 > 50 µM means inactive, read-out: Cytotoxic activity IC50
Description: (§1) The effect of the prepared BRs derivatives on the viability (in Calcein AM assays) of BJ human fibroblasts (as an example of a “normal” cell line) and human cancer cell lines of various histopathological origins, including: T-lymphoblastic leukemia CEM, breast carcinoma MCF7 and cervical carcinoma cell line HeLa, was also studied. Cells of all these lines were exposed to six 3-fold dilutions of each drug for 72 h prior to determination of cell survival. The IC50 (concentration leading to 50% inhibition of viability) values obtained from the Calcein AM cytotoxicity assay were calculated. […] All tested BR nitrogen-containing derivatives had no detectable activity, even when tested in concentrations of up to 50 µM.
(§2) The screening cell lines: T-lymphoblastic leukemia CEM; breast carcinoma MCF7 (estrogen-sensitive); cervical carcinoma cell line HeLa; and human foreskin fibroblasts BJ, were obtained from the American Type Culture Collection (Manassas, VA, USA). Cells were cultured in DMEM (Dulbecco’s Modified Eagle Medium, Sigma, St. Louis, MO, USA). Media used were supplemented with 10% fetal bovine serum, 2mM L-glutamine and 1% penicillin–streptomycin. The cell lines were maintained under standard cell culture conditions at 37 °C and 5% CO2 in a humid environment.
(§3) Cells were subcultured twice or three times a week using the standard trypsinization procedure. Cytotoxicity in cancer cell lines after 72 h was determined as described earlier. Control cultures were treated with DMSO alone, and the final concentration of DMSO in the mixture never exceeded 0.6%. Six serial 3-fold dilutions of the test substances were added at time zero in 20 μL aliquots to the microtiter plate wells and the highest final concentration in the wells was 50 μM.
(§4) Table S3: Cytotoxic activities, IC50 (µM/L)a, of compounds in three tumor and one normal fibroblast
(§5) Compound CEM MCF7 HeLa BJ
(§6) a The lowest concentration that kills 50% of cells.
(§7) b Increase of cell proliferation.

[2] = Calcein AM cytotoxicity assay, HeLa; format: cell-based; settings: human, HeLa cervical carcinoma cells, IC50 > 50 µM means inactive, read-out: Cytotoxic activity IC50
Description: as §1, §2, §3, §4, §5, §6, §7

[3] = Calcein AM cytotoxicity assay, MCF7; format: cell-based; settings: human, MCF7 breast carcinoma cells (estrogen-sensitive), MCF7, 72 h, IC50 > 50 µM means inactive, read-out: Cytotoxic activity IC50
Description: as §1, §2, §3, §4, §5, §6, §7

[4] = system: Arabidopsis thaliana L. (Columbia ecotype, Col-0) seedlings; experiment: Arabidopsis root sensitivity bioassay; format: in vivo; settings: for root length, mean: 7-day-old seedlings; for elongation of roots (growth-promoting activity) compared to the control: low concentrations (0.1 and 1 nM)
Description: Several bioassays such as the first bean internode, root growth and rice lamina inclination have been developed to evaluate the growth-promoting activity of BR derivatives. In this work, the activity of new BR analogues was evaluated using the Arabidopsis root sensitivity test because of its simplicity and high sensitivity for BRs.. The characteristic effect of exogenously applied BRs on light-grown Arabidopsis is dose-dependent—BRs in higher concentrations cause inhibition of root growth; vice versa, low concentrations are stimulating. The results obtained for 24-epiBL, which was used as a positive control, and the BR derivatives are shown in Figure 2, Figure 3 and Figure S21. […] A similar trend was shown for dimethylammonium hydrochloride 22a and morpholinium hydrochloride 22e with a long side chain. For numerical values of the average, SD and p-value, see Table S2.
The biological activity of the new BRs derivatives was tested by an Arabidopsis sensitivity bioassay which was performed according to [28]. Briefly, seedlings of Arabidopsis thaliana L. (Columbia ecotype, Col-0) were stratified for 2 days at 4 °C and germinated on vertical half-strength Murashige and Skoog (1% w/v sucrose) agar at 22 °C in a 16 h/8 h light–dark cycle. The plates contained concentrations of 24-epiBL (as positive control) and BR derivatives ranging from 0.1 to 10 nM, respectively 100 nM (for selected derivatives only). After 7 days, roots were straightened on solid media plates and scanned with an Epson high-resolution scanner. The entire root length was measured with ImageJ (http://rsbweb.nih.gov/ij/). For each treatment, more than 15 seedlings were analyzed in two biological repeats, and p-values were calculated with the two-tailed Student t-test using Excel software.
(§8) Figure 2 Effect of selected brassinosteroid derivatives on the inhibition of Arabidopsis root length. Seven-day-old Arabidopsis thaliana seedlings (Columbia ecotype, Col-0) were treated with DMSO as control/24epiBL/BR short side chain derivatives; (A)—amides, (B)—amines, (C)—ammonium hydrochlorides. For each treatment, more than 15 seedlings were analyzed in two biological repeats. Error bars represent SD. Asterisks represent significant changes (t-test); * represents p-value < 0.05, in comparison to control.
as §8, with “Figure 3” for “Figure 2”, “control/24epiBL/BR long” for “control/24epiBL/BR short”, “(A)—amides, (B)—ammonium” for “(A)—amides, (B)—amines, (C)—ammonium”
Table S2: Data for figure 2, 3, and S21. P value <0.05(t-test), comparison to control.
control (mean ± SD) 16.3 ± 1.21
*only selected compounds were tested
mean(mm) SD t-test mean (mm) SD t-test mean (mm) SD t-test mean (mm) SD t-test
(1 picture or pasted object on this page, not shown here)

[5] = Calcein AM cytotoxicity assay, CEM; format: cell-based; settings: human, CEM T-lymphoblastic leukemia cells, IC50 > 50 µM means inactive, read-out: Cytotoxic activity IC50
Description: as §1, §2, §3, §4, §5, §6, §7

[6] = 100 nM (only selected compounds), control 14.61 ± 0.85

Compound | melting point | IC50 at 72 h [1] [µM] | IC50 at 72 h [2] [µM] | IC50 at 72 h [3] [µM] | root length, mean ([4]; 0.1 nM, control 16.3 ± 1.21) [mm] | root length, mean ([4]; 1 nM, control 16.3 ± 1.21) [mm] | root length, mean ([4]; 10 nM, control 16.3 ± 1.21) [mm] | root length, mean [4, 6] [mm] | elongation of roots (growth-promoting activity) compared to the control [4] | inhibitory effect on Arabidopsis root growth ([4]; tested 0.1 to 10 nM, selected derivatives also 100 nM) | IC50 at 72 h [5] [µM] | concentration inhibiting Arabidopsis root growth ([4]; light-grown seedlings, positive control) [nM]
C[C@H](CN(C)C)[C@H]1CCC2C3CC(=O)[C@H]4C[C@H](O)[C@H](O)C[C@]4(C)C3CC[C@@]21C (stereo partly drawn) (as salt: chloride) [16a, N,N-dimethyl-((20S)-2α,3α-dihydroxy-6-oxo-5α-pregnane-20-methyl)aminium chloride] | > 290 °C (dec.) |  |  |  |  |  |  |  |  |  |  | 
CCN(CC)C[C@@H](C)[C@H]1CCC2C3CC(=O)[C@H]4C[C@H](O)[C@H](O)C[C@]4(C)C3CC[C@@]21C (stereo partly drawn) (as salt: chloride) [16b, N,N-diethyl-((20S)-2α,3α-dihydroxy-6-oxo-5α-pregnane-20-methyl)aminium chloride] | > 270 °C (dec.) |  |  |  |  |  |  |  |  |  |  | 
C[C@H](CN1CCCC1)[C@H]1CCC2C3CC(=O)[C@H]4C[C@H](O)[C@H](O)C[C@]4(C)C3CC[C@@]21C (stereo partly drawn) (as salt: chloride) [16c, 1-((20S)-2α,3α-dihydroxy-6-oxo-5α-pregnane-20-methyl)pyrrolidin-1-ium chloride] | > 260 °C (dec.) |  |  |  |  |  |  |  |  |  |  | 
C[C@H](CN1CCCCC1)[C@H]1CCC2C3CC(=O)[C@H]4C[C@H](O)[C@H](O)C[C@]4(C)C3CC[C@@]21C (stereo partly drawn) (as salt: chloride) [16d, 1-((20S)-2α,3α-dihydroxy-6-oxo-5α-pregnane-20-methyl)piperidin-1-ium chloride] | > 280 °C (dec.) |  |  |  |  |  |  |  |  |  |  | 
C[C@H](CN1CCOCC1)[C@H]1CCC2C3CC(=O)[C@H]4C[C@H](O)[C@H](O)C[C@]4(C)C3CC[C@@]21C (stereo partly drawn) (as salt: chloride) [16e, 4-((20S)-2α,3α-dihydroxy-6-oxo-5α-pregnane-20-methyl)morpholin-4-ium chloride] | > 240 °C (dec.) |  |  |  |  |  |  |  |  |  |  | 
C[C@H](C(=O)N(C)C)[C@H]1CC[C@H]2[C@@H]3CC(=O)[C@H]4C[C@H](O)[C@H](O)C[C@]4(C)[C@H]3CC[C@]12C [8a, N,N-dimethyl-(20S)-2α,3α-dihydroxy-6-oxo-5α-pregnane-20-carboxamide] | > 230 °C (dec.) | > 50 | > 50 | > 50 | 16.12 | 18.41 | 16.46 | 13.329 | slight elongation of roots; also recorded: interesting growth-promoting activity | weak inhibition up to the highest tested concentration of 100 nM | > 50 | 
CCN(CC)C(=O)[C@@H](C)[C@H]1CC[C@H]2[C@@H]3CC(=O)[C@H]4C[C@H](O)[C@H](O)C[C@]4(C)[C@H]3CC[C@]12C [8b, N,N-diethyl-(20S)-2α,3α-dihydroxy-6-oxo-5α-pregnane-20-carboxamide] | > 200 °C (dec.) | > 50 | > 50 | > 50 | 18.41 | 15.15 | 16.95 | 13.836 | slight elongation of roots; also recorded: interesting growth-promoting activity |  | > 50 | 
C[C@H](CN(C)C)[C@H]1CCC2C3CC(=O)[C@H]4C[C@H](O)[C@H](O)C[C@]4(C)C3CC[C@@]21C (stereo partly drawn) [16a, N,N-dimethyl-((20S)-2α,3α-dihydroxy-6-oxo-5α-pregnane-20-methyl)aminium chloride] |  | > 50 | > 50 | > 50 | 18.91 | 15.64 | 15.32 | 13.626 |  |  | > 50 | 
CCN(CC)C[C@@H](C)[C@H]1CCC2C3CC(=O)[C@H]4C[C@H](O)[C@H](O)C[C@]4(C)C3CC[C@@]21C (stereo partly drawn) [16b, N,N-diethyl-((20S)-2α,3α-dihydroxy-6-oxo-5α-pregnane-20-methyl)aminium chloride] |  | > 50 | > 50 | > 50 | 17.27 | 17.61 | 16.13 |  |  |  | > 50 | 
C[C@H](CN1CCCC1)[C@H]1CCC2C3CC(=O)[C@H]4C[C@H](O)[C@H](O)C[C@]4(C)C3CC[C@@]21C (stereo partly drawn) [16c, 1-((20S)-2α,3α-dihydroxy-6-oxo-5α-pregnane-20-methyl)pyrrolidin-1-ium chloride] |  | > 50 | > 50 | > 50 | 15.97 | 14.99 | 15.16 |  |  |  | > 50 | 
C[C@H](CN1CCCCC1)[C@H]1CCC2C3CC(=O)[C@H]4C[C@H](O)[C@H](O)C[C@]4(C)C3CC[C@@]21C (stereo partly drawn) [16d, 1-((20S)-2α,3α-dihydroxy-6-oxo-5α-pregnane-20-methyl)piperidin-1-ium chloride] |  | > 50 | > 50 | > 50 | 15.32 | 15.65 | 17.61 |  |  |  | > 50 | 
C[C@H](CN1CCOCC1)[C@H]1CCC2C3CC(=O)[C@H]4C[C@H](O)[C@H](O)C[C@]4(C)C3CC[C@@]21C (stereo partly drawn) [16e, 4-((20S)-2α,3α-dihydroxy-6-oxo-5α-pregnane-20-methyl)morpholin-4-ium chloride] |  | > 50 | > 50 | > 50 | 17.21 | 17.61 | 16.13 | 13.771 | slight elongation of roots; also recorded: interesting growth-promoting activity |  | > 50 | 
CC(C)[C@@H](C)[C@@H](O)[C@H](O)[C@@H](C)[C@H]1CC[C@H]2[C@@H]3COC(=O)[C@H]4C[C@H](O)[C@H](O)C[C@]4(C)[C@H]3CC[C@]12C [24-epiBL, 24-epibrassinolide, reference compound] |  |  |  |  | 15.811 | 13.855 | 7.342 | 6.685 |  |  |  | ≥ 1

From publication PMC7795425, “Synthesis and Biological Activity of Brassinosteroid Analogues with a Nitrogen-Containing Side Chain” (International Journal of Molecular Sciences, 2020)
